In one assay the target is human PHD2181-417 (Homo sapiens (Human), UniProt Q9GZT9). In words: PHD2 enzyme activity assay ([14C]-succinic acid production).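 Note: reaction ran 10 min with compound in Tris pH 7.5 buffer with catalase, DTT and ascorbate, labelled succinate freed of leftover 2-oxoglutarate by DNP precipitation, then beta counted.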 The assay is classed as biochemical. As to conditions: PHD2181-417 polypeptide, HIF-1α peptide 10 μM, [5-14C]-2-oxoglutaric acid; 30 min pre-incubation; tested 10 μM to 3 nM.
A further assay deals with Hep-3B cells. Put plainly: Cellular assay: EPO secretion in Hep-3B cells. Format: cell-based, human. More on the design: EPO secretion, % of control compound: dose or concentration left out as unconfirmed. The conditions noted are these: Homo sapiens, Hep3B, 24 h, EPO secretion as percentage of control compound 7-[(4-Chloro-phenyl)-(5-methyl-isoxazol-3-ylamino)-methyl]-quinolin-8-ol, read-out: Cellular % EPO Stimulation.

Sequence of human PHD2181-417 (Q9GZT9 181-417): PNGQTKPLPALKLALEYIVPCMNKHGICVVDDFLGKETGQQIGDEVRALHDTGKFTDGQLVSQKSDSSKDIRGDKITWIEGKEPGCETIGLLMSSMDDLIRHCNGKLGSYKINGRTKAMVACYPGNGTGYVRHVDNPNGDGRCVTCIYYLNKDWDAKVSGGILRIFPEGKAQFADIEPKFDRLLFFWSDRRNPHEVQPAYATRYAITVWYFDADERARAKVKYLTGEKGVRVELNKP

Turning to `O=C(O)c1cnn(-c2nc3c(Br)c(F)c(F)cc3[nH]2)c1` [Example 32, 1-(4-Bromo-5,6-difluoro-1H-benzoimidazol-2-yl)-1H-pyrazole-4-carboxylic Acid], at human PHD2181-417, the “Enzyme pIC50” value worked out at 6.7. Moreover, the EPO secretion, % of control compound in the assay on Hep-3B cells was 33%.

`Cc1cc(Cl)cc2[nH]c(-n3cc(C(=O)O)cn3)nc12` [Example 33, 1-(6-Chloro-4-methyl-1H-benzoimidazol-2-yl)-1H-pyrazole-4-carboxylic Acid]: the “Enzyme pIC50” value at human PHD2181-417 turned out to be 6. Besides, the EPO secretion, % of control compound in the assay with Hep-3B cells came to 13.4%.

As for `O=C(O)c1cnn(-c2nc3c(Cl)cc(Cl)cc3[nH]2)c1` [Example 34, 1-(4,6-Dichloro-1H-benzoimidazol-2-yl)-1H-pyrazole-4-carboxylic Acid], on human PHD2181-417, the “Enzyme pIC50” value is reported as 6.5. In the assay on Hep-3B cells, the EPO secretion, % of control compound turned out to be 56.3%.

For the compound `O=C(O)c1cnn(-c2nc3c(Br)cc(C(F)(F)F)cc3[nH]2)c1` [Example 35, 1-(4-Bromo-6-trifluoromethyl-1H-benzoimidazol-2-yl)-1H-pyrazole-4-carboxylic Acid], at human PHD2181-417, the “Enzyme pIC50” value came out at 6.8. Also, in the assay with Hep-3B cells, the EPO secretion, % of control compound amounted to 29.7%.

Take `O=C(O)c1cnn(-c2nc3cc(F)c(F)cc3[nH]2)c1` [Example 36, 1-(5,6-Difluoro-1H-benzoimidazol-2-yl)-1H-pyrazole-4-carboxylic Acid]: at human PHD2181-417, the “Enzyme pIC50” value was determined as 6.6. For the same compound, the EPO secretion, % of control compound with Hep-3B cells turned out to be 79.4%.

As to `O=C(O)c1cnn(-c2nc3c(Br)cc(Cl)cc3[nH]2)c1` [Example 37, 1-(4-Bromo-6-chloro-1H-benzoimidazol-2-yl)-1H-pyrazole-4-carboxylic Acid], at human PHD2181-417, the “Enzyme pIC50” value was 6.6. Besides, the EPO secretion, % of control compound in the assay with Hep-3B cells worked out at 34%.

`CS(=O)(=O)c1ccc2nc(-n3cc(C(=O)O)cn3)[nH]c2c1` [Example 38, 1-(6-Methanesulfonyl-1H-benzoimidazol-2-yl)-1H-pyrazole-4-carboxylic Acid]: the “Enzyme pIC50” value on human PHD2181-417 turned out to be 7.1. Moreover, the EPO secretion, % of control compound in the assay on Hep-3B cells is 40.9%.

Turning to `N#Cc1cc2nc(-n3cc(C(=O)O)cn3)[nH]c2cc1Cl` [Example 39, 1-(6-Chloro-5-cyano-1H-benzoimidazol-2-yl)-1H-pyrazole-4-carboxylic Acid], the “Enzyme pIC50” value on human PHD2181-417 is recorded as 7.4. In addition, the EPO secretion, % of control compound with Hep-3B cells is 29.9%.

For the compound `O=C(O)c1cnn(-c2nc3cc([N+](=O)[O-])c(Cl)cc3[nH]2)c1` [Example 40, 1-(6-Chloro-5-nitro-1H-benzoimidazol-2-yl)-1H-pyrazole-4-carboxylic Acid], the “Enzyme pIC50” value at human PHD2181-417 is on record as 7.5. Further, the EPO secretion, % of control compound in the assay with Hep-3B cells stood at 93.4%.

For the compound `Nc1cc2nc(-n3cc(C(=O)O)cn3)[nH]c2cc1Cl` [Example 41, 1-(5-Amino-6-chloro-1H-benzoimidazol-2-yl)-1H-pyrazole-4-carboxylic Acid], on human PHD2181-417, the “Enzyme pIC50” value came out at 6.4. Moreover, the EPO secretion, % of control compound in the assay with Hep-3B cells was found to be 30%.

For the compound `O=C(O)c1cnn(-c2nc3cc(F)ccc3[nH]2)c1` [Example 42, 1-(5-Fluoro-1H-benzoimidazol-2-yl)-1H-pyrazole-4-carboxylic Acid], the “Enzyme pIC50” value on human PHD2181-417 was found to be 6.3. The EPO secretion, % of control compound in the assay with Hep-3B cells worked out at 33.8%.

`O=C(O)c1cnn(-c2nc3cc(N4CCCC4)c(Cl)cc3[nH]2)c1` [Example 43, 1-(6-Chloro-5-pyrrolidin-1-yl-1H-benzoimidazol-2-yl)-1H-pyrazole-4-carboxylic Acid]: the “Enzyme pIC50” value at human PHD2181-417 amounted to 6.7. The EPO secretion, % of control compound in the assay on Hep-3B cells was 178%.

For the compound `O=C(O)c1cnn(-c2nc3cc(N4CCCCC4)c(Cl)cc3[nH]2)c1` [Example 44, 1-(6-Chloro-5-piperidin-1-yl-1H-benzoimidazol-2-yl)-1H-pyrazole-4-carboxylic Acid], the “Enzyme pIC50” value at human PHD2181-417 is given as 6.7. In addition, the EPO secretion, % of control compound with Hep-3B cells is 139%.

Take `O=C(O)c1cnn(-c2nc3cc(N4CCOCC4)c(Cl)cc3[nH]2)c1` [Example 45, 1-(6-Chloro-5-morpholin-4-yl-1H-benzoimidazol-2-yl)-1H-pyrazole-4-carboxylic Acid]: at human PHD2181-417, the “Enzyme pIC50” value stood at 6.6. The EPO secretion, % of control compound in the assay with Hep-3B cells turned out to be 30.9%.

Consider `COc1cc2[nH]c(-n3cc(C(=O)O)cn3)nc2cc1Cl` [Example 46, 1-(6-Chloro-5-methoxy-1H-benzoimidazol-2-yl)-1H-pyrazole-4-carboxylic Acid], for which the “Enzyme pIC50” value on human PHD2181-417 was 6.5. For the same compound, the EPO secretion, % of control compound in the assay with Hep-3B cells was determined as 76%.

Take `O=C(O)c1ccc2[nH]c(-n3cc(C(=O)O)cn3)nc2c1` [Example 47, 2-(4-Carboxy-pyrazol-1-yl)-1H-benzoimidazole-5-carboxylic Acid]: the “Enzyme pIC50” value on human PHD2181-417 is given as 6.6. In addition, the EPO secretion, % of control compound with Hep-3B cells is 11%.

`O=C(O)c1cnn(-c2nc3cc(Br)cc(F)c3[nH]2)c1` [Example 48, 1-(5-Bromo-7-fluoro-1H-benzoimidazol-2-yl)-1H-pyrazole-4-carboxylic Acid]: on human PHD2181-417, the “Enzyme pIC50” value amounted to 6.3. Also, the EPO secretion, % of control compound in the assay on Hep-3B cells came out at 44%.

Regarding `Cc1cc(Br)cc2nc(-n3cc(C(=O)O)cn3)[nH]c12` [Example 49, 1-(5-Bromo-7-methyl-1H-benzoimidazol-2-yl)-1H-pyrazole-4-carboxylic Acid], the “Enzyme pIC50” value at human PHD2181-417 worked out at 6.1. Also, the EPO secretion, % of control compound in the assay with Hep-3B cells came to 24%.

On to `O=C(O)c1cnn(-c2nc3cc(Oc4ccc(Cl)c(Cl)c4)c(C(F)(F)F)cc3[nH]2)c1` [Example 50, 1-[5-(3,4-Dichloro-phenoxy)-6-trifluoromethyl-1H-benzoimidazol-2-yl]-1H-pyrazole-4-carboxylic Acid], for which the “Enzyme pIC50” value on human PHD2181-417 came to 7.4. For the same compound, the EPO secretion, % of control compound in the assay with Hep-3B cells worked out at 18%.

`O=C(O)c1cnn(-c2nc3cc(Oc4ccc(Cl)cc4)c(Cl)cc3[nH]2)c1` [Example 51, 1-[6-Chloro-5-(4-chloro-phenoxy)-1H-benzoimidazol-2-yl]-1H-pyrazole-4-carboxylic Acid]: on human PHD2181-417, the “Enzyme pIC50” value is on record as 7.4. In addition, the EPO secretion, % of control compound in the assay on Hep-3B cells was determined as 150%.

Turning to `O=C(O)c1cnn(-c2nc3cc(Oc4ccc(Cl)cc4)c(OC(F)(F)F)cc3[nH]2)c1` [Example 52, 1-[5-(4-Chloro-phenoxy)-6-trifluoromethoxy-1H-benzoimidazol-2-yl]-1H-pyrazole-4-carboxylic Acid], the “Enzyme pIC50” value at human PHD2181-417 came out at 7.4. Further, in the assay with Hep-3B cells, the EPO secretion, % of control compound worked out at 21.6%.

For `O=C(O)c1cnn(-c2nc3cc(Oc4ccccc4)c(OC(F)(F)F)cc3[nH]2)c1` [Example 53, 1-(5-Phenoxy-6-trifluoromethoxy-1H-benzoimidazol-2-yl)-1H-pyrazole-4-carboxylic Acid], on human PHD2181-417, the “Enzyme pIC50” value came to 7.2. The EPO secretion, % of control compound in the assay with Hep-3B cells stood at 138%.

As to `O=C(O)c1cnn(-c2nc3cc(Oc4ccc(F)cc4)c(C(F)(F)F)cc3[nH]2)c1` [Example 54, 1-[5-(4-Fluoro-phenoxy)-6-trifluoromethyl-1H-benzoimidazol-2-yl]-1H-pyrazole-4-carboxylic Acid], on human PHD2181-417, the “Enzyme pIC50” value turned out to be 7.3. Besides, in the assay with Hep-3B cells, the EPO secretion, % of control compound came to 75.5%.

For `O=C(O)c1cnn(-c2nc3cc(Oc4ccc(Cl)cc4)c(C(F)(F)F)cc3[nH]2)c1` [Example 55, 1-[5-(4-Chloro-phenoxy)-6-trifluoromethyl-1H-benzoimidazol-2-yl]-1H-pyrazole-4-carboxylic Acid], the “Enzyme pIC50” value on human PHD2181-417 is given as 7.5. For the same compound, in the assay on Hep-3B cells, the EPO secretion, % of control compound amounted to 44.2%.

The values above are taken from US10851083B2, “Benzoimidazoles as prolyl hydroxylase inhibitors” (Janssen Pharmaceutica NV, priority 2008, dated 2020).
